The target in experiment [1] is T1, human GABAB1 and GABAB2 receptor subunits (Homo sapiens, UniProt O75899+Q9UBS5).
T1 construct: expressed in transfected cells; host or cells: CHO cells
The experiment in a line: Potentiation of GABA dose-response, FLIPR calcium assay. The class given is cell-based. Particulars: compound at 10 μM; EC50 of GABA divided by EC50 of GABA in the presence of positive allosteric modulator. As to the method: (§1) CHO cells expressing the human GABAB1 and GABAB2 receptor subunits co-expressing promiscuous Galpha16 proteins to force couple the receptor to the intracellular calcium signalling pathway were used to study GABAB pharmacology in vitro. The cells were maintained at 37° C. in a 5% CO2 95% air atmosphere in HAM F-12 medium supplemented with 10% foetal bovine serum and selection antibiotics.
(§2) The day before the experiment the cells were detached and plated into black-walled clear bottom 384-well plates at a cell density of 20 000 cells per well. The growth medium was removed and the cells were incubated with FLIPR Calcium 5 Assay reagent (Molecular Devices, CA, USA) diluted 1:1 in Probenecid-Ringer for 1 h at 37° C. in dark. Probenecid-Ringer buffer consisted of 150 mM NaCl, 3 mM KCl, 1.2 mM MgCl2, 1 mM CaCl2, 5 mM glucose, 20 mM 2-(4-(2-hydroxyethyl)piperazin-1-yl)ethanesulfonic acid (HEPES), and 2.5 mM Probenecid (pH 7.4 adjusted with 1.0 M NaOH and osmolarity adjusted to […]). Compounds were dissolved in Probenecid-Ringer. […] The samples were excited at 470-495 nm and emission was detected at 515-575 nm. All experiments were performed at 37° C.
(§3) Baseline fluorescence minimum was subtracted from maximum for the calculation of agonism and positive allosteric modulator pharmacology. Both in the agonism mode and in the allosteric mode, the efficacy was related to the intrinsic activity (IA) of the endogenous agonist GABA at 30 μM (positive allosteric modulator efficacy at 10 μM/GABA efficacy or agonism efficacy at 30 μM/GABA efficacy). To determine potentiation of GABA dose-response, the compounds, at a concentration of 10 μM diluted in Probenecid-Ringer, were added by FLIPR tetra followed by addition of GABA (diluted in water in the concentration range 0.123-10 μM). The EC50 values were determined using a four-parameter logistic fit (model 205 in ActivityBase XE). The EC50 value of GABA was divided with the EC50 value of GABA in the presence of positive allosteric modulator to determine potentiation of GABA dose-response EC50 value.

Experiment [2] deals with T1, human GABAB1 and GABAB2 receptor subunits. The experiment in a line: Agonism and positive allosteric modulator pharmacology in vitro, two-addition FLIPR calcium assay. It is filed as cell-based. The settings on record: CHO cells co-expressing Galpha16; for IA (GABAB agonism): agonism efficacy at 30 μM / GABA efficacy at 30 μM; for IA (GABAB positive allosteric modulation): positive allosteric modulator efficacy at 10 μM (with EC10.5 GABA) / GABA efficacy at 30 μM. On the procedure: as §1, §2
A two-addition protocol was used to determine agonism and positive allosteric modulator pharmacology in the same assay using a kinetic read out. Agonism pharmacology of compounds was studied in the first addition in the concentration range 0.123-30 μM in quadruplicate at each concentration. In the second addition, a low (EC10.5) concentration of GABA was applied to detect the positive allosteric modulator pharmacology of the compounds to be studied. The EC10.5 concentration was determined from the GABA EC50 value using the formula ECF≈(F/(100-F))^1/H·EC50, wherein F is the fraction of full response and H is Hill slope.
as §3

T1 sequence (Q9UBS5 15-961 limits assumed): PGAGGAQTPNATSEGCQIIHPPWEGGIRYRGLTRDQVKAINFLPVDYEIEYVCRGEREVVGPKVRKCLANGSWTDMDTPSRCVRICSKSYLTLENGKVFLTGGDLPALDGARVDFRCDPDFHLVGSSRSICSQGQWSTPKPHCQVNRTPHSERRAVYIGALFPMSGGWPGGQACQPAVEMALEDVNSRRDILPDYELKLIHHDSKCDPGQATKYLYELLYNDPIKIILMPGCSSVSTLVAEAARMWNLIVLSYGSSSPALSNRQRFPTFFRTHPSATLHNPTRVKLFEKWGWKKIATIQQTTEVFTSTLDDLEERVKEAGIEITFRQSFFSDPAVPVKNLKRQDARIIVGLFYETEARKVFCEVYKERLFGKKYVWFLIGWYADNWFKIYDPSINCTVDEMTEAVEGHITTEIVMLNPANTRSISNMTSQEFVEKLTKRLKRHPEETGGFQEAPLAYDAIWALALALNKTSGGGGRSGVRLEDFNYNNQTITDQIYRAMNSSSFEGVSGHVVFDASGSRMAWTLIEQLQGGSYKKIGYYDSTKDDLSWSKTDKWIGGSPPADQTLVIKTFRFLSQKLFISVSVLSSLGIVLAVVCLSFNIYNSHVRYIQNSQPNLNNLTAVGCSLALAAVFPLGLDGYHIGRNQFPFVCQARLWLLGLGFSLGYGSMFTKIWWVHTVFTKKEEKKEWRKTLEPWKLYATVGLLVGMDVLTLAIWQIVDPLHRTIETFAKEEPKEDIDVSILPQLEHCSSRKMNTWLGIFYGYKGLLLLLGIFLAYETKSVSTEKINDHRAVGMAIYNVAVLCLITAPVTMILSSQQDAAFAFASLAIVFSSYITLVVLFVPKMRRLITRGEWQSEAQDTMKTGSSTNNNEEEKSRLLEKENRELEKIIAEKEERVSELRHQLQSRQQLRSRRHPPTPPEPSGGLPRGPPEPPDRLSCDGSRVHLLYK
T1 sequence (O75899 42-941): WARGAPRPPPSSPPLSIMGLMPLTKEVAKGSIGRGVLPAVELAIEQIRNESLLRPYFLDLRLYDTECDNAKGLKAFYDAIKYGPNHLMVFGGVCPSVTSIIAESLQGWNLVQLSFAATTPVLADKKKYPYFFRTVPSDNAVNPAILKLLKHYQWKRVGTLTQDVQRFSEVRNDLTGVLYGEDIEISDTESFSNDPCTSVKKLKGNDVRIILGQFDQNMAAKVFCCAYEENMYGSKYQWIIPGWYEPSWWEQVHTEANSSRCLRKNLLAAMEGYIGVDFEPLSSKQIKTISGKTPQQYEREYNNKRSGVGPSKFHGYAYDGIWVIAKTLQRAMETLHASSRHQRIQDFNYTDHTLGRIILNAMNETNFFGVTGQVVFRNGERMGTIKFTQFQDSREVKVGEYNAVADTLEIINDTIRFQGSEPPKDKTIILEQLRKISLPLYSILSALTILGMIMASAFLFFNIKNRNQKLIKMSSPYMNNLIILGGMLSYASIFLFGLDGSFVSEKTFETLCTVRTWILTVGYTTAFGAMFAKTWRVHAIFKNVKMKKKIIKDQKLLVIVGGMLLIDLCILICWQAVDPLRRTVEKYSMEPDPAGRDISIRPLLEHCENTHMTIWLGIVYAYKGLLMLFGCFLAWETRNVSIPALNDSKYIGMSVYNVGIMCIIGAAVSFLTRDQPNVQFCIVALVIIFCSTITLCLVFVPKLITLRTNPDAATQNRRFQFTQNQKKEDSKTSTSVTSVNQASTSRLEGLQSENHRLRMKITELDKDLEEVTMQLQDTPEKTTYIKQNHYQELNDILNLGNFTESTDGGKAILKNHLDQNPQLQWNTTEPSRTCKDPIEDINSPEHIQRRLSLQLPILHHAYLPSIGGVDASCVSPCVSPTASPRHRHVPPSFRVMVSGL

With `CC(C)(O)Cn1c(=O)n(Cc2ccc(Cl)c(Cl)c2)c(=O)c2ccc(C(F)(F)F)cc21` [Example 2, 3-(3,4-Dichlorobenzyl)-1-(2-hydroxy-2-methylpropyl)-7-(trifluoromethyl)quinazoline-2,4(1H,3H)-dione], in experiment [1], the “Potentiation of GABA (fold)” value turned out to be 11 fold. In experiment [2], the “IA (GABAB agonism)” value was 0.14 and the “IA (GABAB positive allosteric modulation)” value worked out at 0.65.
For the compound `Cn1c(=O)n(C2CCCc3ccccc32)c(=O)c2ccc(C(F)(F)F)cc21` (stereo not drawn) [Example 12, 1-Methyl-3-(1,2,3,4-tetrahydronaphthalen-1-yl)-7-(trifluoromethyl)quinazoline-2,4(1H,3H)-dione], in experiment [1], the “Potentiation of GABA (fold)” value is 25.8 fold. In addition, in experiment [2], the “IA (GABAB agonism)” value is 0.20 and the “IA (GABAB positive allosteric modulation)” value amounted to 0.67.
Turning to `Cn1c(=O)n(Cc2ccc(Br)cc2)c(=O)c2ccc(Cl)cc21` [Example 18, 3-(4-Bromobenzyl)-7-chloro-1-methylquinazoline-2,4(1H,3H)-dione], the “Potentiation of GABA (fold)” value in experiment [1] stood at 1.6 fold. Moreover, in experiment [2], the “IA (GABAB agonism)” value is listed as 0.06 and the “IA (GABAB positive allosteric modulation)” value was determined as 0.43.
`CC(C)(C)C(=O)Cn1c(=O)n(Cc2ccc(Br)cc2)c(=O)c2ccc(F)cc21` [Example 26, 3-(4-Bromobenzyl)-1-(3,3-dimethyl-2-oxobutyl)-7-fluoroquinazoline-2,4(1H,3H)-dione]: the “Potentiation of GABA (fold)” value in experiment [1] is 1.7 fold. Further, in experiment [2], the “IA (GABAB agonism)” value worked out at 0.08 and the “IA (GABAB positive allosteric modulation)” value came out at 0.48.
On the same counts, the results for `Cn1c(=O)n(Cc2ccc(Br)cc2)c(=O)c2ccc(F)cc21` [Example 33, 3-(4-Bromobenzyl)-7-fluoro-1-methylquinazoline-2,4(1H,3H)-dione] are 4.8 fold, 0.23 and 0.45.
On the same counts, the results for `CC(C(N)=O)n1c(=O)n(Cc2ccc(Br)cc2)c(=O)c2ccc(F)cc21` (stereo not drawn) [Example 37, 2-(3-(4-Bromobenzyl)-7-fluoro-2,4-dioxo-3,4-dihydroquinazolin-1(2H)-yl)propanamide] are 1.9 fold, 0.21 and 0.39.
For `CC(C)n1c(=O)n(Cc2ccc(Br)cc2)c(=O)c2ccc(F)cc21` [Example 38, 3-(4-Bromobenzyl)-7-fluoro-1-isopropylquinazoline-2,4(1H,3H)-dione], in that order: 3.5 fold, 0.13 and 0.21.
`CC(C)(O)Cn1c(=O)n(Cc2ccc(Br)cc2)c(=O)c2ccc(F)cc21` [Example 39, 3-(4-Bromobenzyl)-7-fluoro-1-(2-hydroxy-2-methylpropyl)quinazoline-2,4(1H,3H)-dione]: the “Potentiation of GABA (fold)” value in experiment [1] is given as 23.1 fold. Also, in experiment [2], the “IA (GABAB agonism)” value was 0.30 and the “IA (GABAB positive allosteric modulation)” value is 0.85.
On the same counts, the results for `Cn1c(=O)n(Cc2ccc([N+](=O)[O-])cc2)c(=O)c2ccc(F)cc21` [Example 40, 7-Fluoro-1-methyl-3-(4-nitrobenzyl)quinazoline-2,4(1H,3H)-dione] are 1.5 fold, 0.04 and 0.26.
For `CC(C)(O)Cn1c(=O)n(Cc2ccc(Cl)c(Oc3ccccc3)c2)c(=O)c2ccc(F)cc21` [Example 41, 3-(4-Chloro-3-phenoxybenzyl)-7-fluoro-1-(2-hydroxy-2-methylpropyl)quinazoline-2,4(1H,3H)-dione], in that order: 2.8 fold, 0.10 and 0.47.
For `C[C@H](c1ccc(Cl)cc1)n1c(=O)c2ccc(F)cc2n(C)c1=O` [Example 42, (R)-3-(1-(4-Chlorophenyl)ethyl)-7-fluoro-1-methylquinazoline-2,4(1H,3H)-dione], in that order: 7.3 fold, 0.18 and 0.37.
Consider `Cn1c(=O)n(C2(c3ccc(Cl)cc3)CC2)c(=O)c2ccc(F)cc21` [Example 43, 3-(1-(4-Chlorophenyl)cyclopropyl)-7-fluoro-1-methylquinazoline-2,4(1H,3H)-dione], for which the “Potentiation of GABA (fold)” value in experiment [1] stood at 3.8 fold. In experiment [2], the “IA (GABAB agonism)” value was 0.17 and the “IA (GABAB positive allosteric modulation)” value is given as 0.51.
In the case of `CC(C)(O)Cn1c(=O)n(Cc2ccc(Br)cc2)c(=O)c2cc(F)c(Cl)cc21` [Example 49, 3-(4-Bromobenzyl)-7-chloro-6-fluoro-1-(2-hydroxy-2-methylpropyl)quinazoline-2,4(1H,3H)-dione], the “Potentiation of GABA (fold)” value in experiment [1] stood at 31 fold. For the same compound, in experiment [2], the “IA (GABAB agonism)” value was determined as 0.28 and the “IA (GABAB positive allosteric modulation)” value was 0.61.
On the same counts, the results for `CC1(Cn2c(=O)n(Cc3ccc(Br)cc3)c(=O)c3cc(F)c(Cl)cc32)COC1` [Example 50, 3-(4-Bromobenzyl)-7-chloro-6-fluoro-1-((3-methyloxetan-3-yl)methyl)quinazoline-2,4(1H,3H)-dione] are 22 fold, 0.04 and 0.73.
For `CC(C)(O)Cn1c(=O)n(Cc2ccc(Br)cc2)c(=O)c2cc(F)c(F)c(F)c21` [Example 60, 3-(4-Bromobenzyl)-6,7,8-trifluoro-1-(2-hydroxy-2-methylpropyl)quinazoline-2,4(1H,3H)-dione], in that order: 89 fold, 0.20 and 0.85.
On the same counts, the results for `CC1(C)Cn2c(=O)n(Cc3ccc(Br)cc3)c(=O)c3cc(F)c(F)c(c32)O1` [Example 66, 6-(4-Bromobenzyl)-9,10-difluoro-2,2-dimethyl-2H-[1,4]oxazino[2,3,4-ij]quinazoline-5,7(3H,6H)-dione] are 12.7 fold, 0.04 and 0.77.
Turning to `CC1(C)Cn2c(=O)n(Cc3ccc(Cl)cc3)c(=O)c3ccc(Cl)c(c32)O1` [Example 67, 10-Chloro-6-(4-chlorobenzyl)-2,2-dimethyl-2H-[1,4]oxazino[2,3,4-ij]quinazoline-5,7(3H,6H)-dione], the “Potentiation of GABA (fold)” value in experiment [1] came out at 9.5 fold. Besides, in experiment [2], the “IA (GABAB agonism)” value was determined as 0.02 and the “IA (GABAB positive allosteric modulation)” value stood at 0.71.
Turning to `C[C@@H](O)Cn1c(=O)n(Cc2ccc(Cl)cc2)c(=O)c2ccc(Cl)c(F)c21` [Example 82, (R)-7-Chloro-3-(4-chlorobenzyl)-8-fluoro-1-(2-hydroxypropyl)quinazoline-2,4(1H,3H)-dione], the “Potentiation of GABA (fold)” value in experiment [1] is 24.5 fold. In experiment [2], the “IA (GABAB agonism)” value turned out to be 0.18 and the “IA (GABAB positive allosteric modulation)” value was determined as 0.71.
Take `COc1c(F)cc2c(=O)n(Cc3ccc(Br)cc3)c(=O)n3c2c1OC(C)(C)C3` [Example 84, 6-(4-Bromobenzyl)-9-fluoro-10-methoxy-2,2-dimethyl-2H-[1,4]oxazino[2,3,4-ij]quinazoline-5,7(3H,6H)-dione]: the “Potentiation of GABA (fold)” value in experiment [1] worked out at 33.4 fold. In experiment [2], the “IA (GABAB agonism)” value came to 0.10 and the “IA (GABAB positive allosteric modulation)” value is 0.86.
Turning to `CCn1c(=O)n(Cc2ccc(Br)cc2)c(=O)c2ccc(F)cc21` [Example 87, 3-(4-Bromobenzyl)-1-ethyl-7-fluoroquinazoline-2,4(1H,3H)-dione], in experiment [1], the “Potentiation of GABA (fold)” value stood at 3.3 fold. Moreover, in experiment [2], the “IA (GABAB agonism)” value turned out to be 0.11 and the “IA (GABAB positive allosteric modulation)” value is listed as 0.44.

The values above are taken from patent US20170137387A1, “PHARMACOLOGICALLY ACTIVE QUINAZOLINEDIONE DERIVATIVES” (ORION CORPORATION, priority 2014, published 2017).
